The record followed here is ChEMBL document CHEMBL5247627, “1-Methyl-3-((4-(quinolin-4-yloxy)phenyl)amino)-1H-pyrazole-4-carboxamide derivatives as new rearranged during Transfection (RET) kinase inhibitors capable of suppressing resistant mutants in solvent-front regions” (Eur J Med Chem, 2022).

The IC50 is the concentration that inhibits the measured activity by half.

A value given as a limit tells only on which side of the number the result lay.

Assay [1] concerns BaF3. The experiment in a line: Antiproliferative activity against mouse BaF3 cells expressing wildtype rearranged during transfection kinase-CCDC6 incubated for 74 to 76 hrs by cell counting kit 8 method. A general note: Tetrazolium assays rely on reduction of a dye to a coloured formazan, in cell work by metabolically active cells.
In assay [2] the test system is BaF3. The experiment in a line: Antiproliferative activity against mouse BaF3 cells expressing rearranged during transfection kinase G810C-CCDC6 incubated for 74 to 76 hrs by cell counting kit 8 method.
The test system of assay [3] is BaF3. The experiment in a line: Antiproliferative activity against mouse BaF3 cells incubated for 74 to 76 hrs by cell counting kit 8 method. Format: functional, cell-based.
Assay [4] relates to BaF3. Nature of the assay: Antiproliferative activity against mouse BaF3 cells expressing rearranged during transfection kinase V804M-CCDC6 incubated for 74 to 76 hrs by cell counting kit 8 method.
In assay [5] the target is Proto-oncogene tyrosine-protein kinase receptor Ret (Homo sapiens, UniProt P07949). Nature of the assay: Inhibition of wild type rearranged during transfection kinase (unknown origin) preincubated for 1 hr followed by addition of development agent incubated for 1 hr measured by FRET-based Z'-Lyte assay.
Proto-oncogene tyrosine-protein kinase receptor Ret, sequence (P07949 whole entry): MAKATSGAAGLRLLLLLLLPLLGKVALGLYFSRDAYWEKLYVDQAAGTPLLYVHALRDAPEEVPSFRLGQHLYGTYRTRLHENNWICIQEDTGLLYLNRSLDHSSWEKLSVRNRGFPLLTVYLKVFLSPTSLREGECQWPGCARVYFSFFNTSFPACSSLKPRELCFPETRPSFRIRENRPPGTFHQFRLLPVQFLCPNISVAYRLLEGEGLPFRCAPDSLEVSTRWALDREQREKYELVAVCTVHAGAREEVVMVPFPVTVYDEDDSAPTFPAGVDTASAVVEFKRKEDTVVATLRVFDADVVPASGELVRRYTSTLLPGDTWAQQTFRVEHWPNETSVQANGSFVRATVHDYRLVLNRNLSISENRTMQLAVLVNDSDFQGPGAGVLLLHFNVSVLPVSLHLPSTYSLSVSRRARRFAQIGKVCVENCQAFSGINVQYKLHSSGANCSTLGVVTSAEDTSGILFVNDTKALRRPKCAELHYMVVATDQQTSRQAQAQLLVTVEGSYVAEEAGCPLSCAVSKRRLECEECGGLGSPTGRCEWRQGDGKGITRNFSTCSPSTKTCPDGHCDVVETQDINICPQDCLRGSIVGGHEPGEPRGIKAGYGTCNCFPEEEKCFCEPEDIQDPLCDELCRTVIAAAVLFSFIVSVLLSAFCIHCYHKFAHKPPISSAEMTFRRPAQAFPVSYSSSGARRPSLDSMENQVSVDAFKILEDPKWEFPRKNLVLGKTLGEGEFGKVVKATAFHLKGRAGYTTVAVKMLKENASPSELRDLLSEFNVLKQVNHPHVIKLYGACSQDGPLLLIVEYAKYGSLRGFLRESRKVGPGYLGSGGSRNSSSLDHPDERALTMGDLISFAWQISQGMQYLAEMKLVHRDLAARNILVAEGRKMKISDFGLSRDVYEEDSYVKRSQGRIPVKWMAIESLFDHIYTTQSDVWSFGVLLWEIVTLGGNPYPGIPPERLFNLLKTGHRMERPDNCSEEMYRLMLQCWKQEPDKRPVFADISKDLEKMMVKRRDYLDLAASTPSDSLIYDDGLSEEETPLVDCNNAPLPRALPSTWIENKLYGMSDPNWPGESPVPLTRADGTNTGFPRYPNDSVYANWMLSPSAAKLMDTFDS
In assay [6] the test system is BaF3. The experiment in a line: Antiproliferative activity against mouse BaF3 cells expressing rearranged during transfection kinase G810R-CCDC6 incubated for 74 to 76 hrs by cell counting kit 8 method.
For assay [7], the system named is BaF3. The experiment in a line: Antiproliferative activity against mouse BaF3 cells expressing rearranged during transfection kinase V804L-KIF5B incubated for 74 to 76 hrs by cell counting kit 8 method.
In assay [8] the test system is BaF3. Nature of the assay: Antiproliferative activity against mouse BaF3 cells expressing wildtype rearranged during transfection kinase-KIF5B incubated for 74 to 76 hrs by cell counting kit 8 method.
The subject of assay [9] is BaF3. Nature of the assay: Antiproliferative activity against mouse BaF3 cells expressing rearranged during transfection kinase V804L-G810C incubated for 74 to 76 hrs by cell counting kit 8 method.
In assay [10] the test system is BaF3. Nature of the assay: Antiproliferative activity against mouse BaF3 cells expressing rearranged during transfection kinase V804M-KIF5B incubated for 74 to 76 hrs by cell counting kit 8 method.
Assay [11] concerns BaF3. Nature of the assay: Antiproliferative activity against mouse BaF3 cells expressing rearranged during transfection kinase V804L-G810S incubated for 74 to 76 hrs by cell counting kit 8 method.
For assay [12], the system named is BaF3. Nature of the assay: Antiproliferative activity against mouse BaF3 cells expressing rearranged during transfection kinase V804L-G810R incubated for 74 to 76 hrs by cell counting kit 8 method.

For the compound `COc1cc2nccc(Oc3ccc(Nc4nn(C)cc4C(=O)Nc4ccc(F)cc4)cc3)c2cc1C(N)=O`, the IC50 in assay [1] was 2.98 µM; in [2], 5.19 µM; in assay [3], 3.06 µM; in assay [4], 3.02 µM; in assay [5], above 10 µM; in assay [6], 2.91 µM.

For the compound `COc1cc2nccc(Oc3ccc(Nc4nn(C)cc4C(=O)NCC4CCCO4)cc3)c2cc1C(N)=O` (stereo unspecified), the concentration for half-maximal inhibition (IC50) in assay [1] is 1.16 µM; in assay [2] it was 9.51 µM; in assay [3], above 10 µM; in [4], 6.91 µM; in [6] it was 9.68 µM.

Regarding `COc1cc2nccc(Oc3ccc(Nc4nn(C)cc4C(=O)N4CCCCC4)cc3)c2cc1C(N)=O`, the 50% inhibitory concentration (IC50) in assay [1] was 3.06 µM; in assay [2], 5.76 µM; in assay [3], 5.65 µM; in [4], 3.78 µM; in assay [5] it was above 10 µM; in [6] it was 3.52 µM.

As to `COc1cc2nccc(Oc3ccc(Nc4nn(C)cc4C(=O)Nc4cccc(F)c4)cc3)c2cc1C(N)=O`, the IC50 was 1.56 µM in [1]; 8.52 µM in [2]; 4.48 µM in assay [3]; 3.27 µM in [4]; above 10 µM in assay [5]; 3.44 µM in [6].

With `COc1cc2nccc(Oc3ccc(Nc4nn(C)cc4C(=O)N4CCCC5CCCCC54)cc3)c2cc1C(N)=O` (stereo unspecified), the IC50 in [1] was 2.98 µM; in assay [2], 3.77 µM; in [3] it was 4.33 µM; in [4], 0.903 µM; in [5] it was above 10 µM; in assay [6], 1.7 µM.

In the case of `COc1cc2nccc(Oc3ccc(Nc4nn(C)cc4C(=O)NC4CCCCC4)cc3)c2cc1C(N)=O`, the IC50 in assay [1] was found to be 0.024 µM; in assay [2], 0.442 µM; in assay [3], 4.8 µM; in assay [4], 0.235 µM; in assay [6], 0.582 µM.

With `COc1cc2nccc(Oc3ccc(Nc4nn(C)cc4C(=O)NC45CCC(CC4)CC5)cc3)c2cc1C(N)=O`, the IC50 in assay [1] is 0.0139 µM; in [2], 0.329 µM; in assay [3], above 10 µM; in assay [4] it was 0.161 µM; in [6], 0.263 µM.

In the case of `COc1cc2nccc(Oc3ccc(Nc4nn(C)cc4C(=O)NOCc4ccccc4)cc3)c2cc1C(N)=O`, the IC50 in assay [1] is 0.41 µM; in assay [2] it was above 10 µM; in assay [3], above 10 µM; in assay [4] it was 0.732 µM; in assay [6], 4.94 µM.

Regarding `COc1cc2nccc(Oc3ccc(Nc4nn(C)cc4C(=O)NCc4ccccc4)cc3)c2cc1C(N)=O`, the IC50 is 2.19 µM in assay [1]; 8.54 µM in assay [2]; above 10 µM in assay [3]; 1.12 µM in [4]; 9.08 µM in assay [6].

As for `CNC(=O)c1cc2c(Oc3ccc(Nc4nn(C)cc4C(=O)NC45CC6CC(CC(C6)C4)C5)cc3F)ccnc2cc1OC`, the IC50 in [1] is 0.0138 µM; in assay [2], 0.122 µM; in [3], above 10 µM; in [4], 0.0615 µM; in [6], 0.192 µM.

`COc1cc2nccc(Oc3ccc(Nc4nn(C)cc4C(=O)NCC(C)C)cc3)c2cc1C(N)=O`: the concentration for half-maximal inhibition (IC50) in assay [1] was 0.206 µM; in [2], 2.28 µM; in assay [3], above 10 µM; in assay [4], 2.08 µM; in [6], 2.05 µM.

Turning to `COc1cc2nccc(Oc3ccc(Nc4nn(C)cc4C(=O)NC45CC6CC(CC(C6)C4)C5)c(C#N)c3)c2cc1C(N)=O`, the IC50 in assay [1] came out at 0.0188 µM; in [2], 0.148 µM; in assay [3], 9.77 µM; in assay [4], 0.0703 µM; in [6] it was 0.23 µM.

In the case of `COc1cc2nccc(Oc3ccc(Nc4nn(C)cc4C(=O)NC4CCCCCCC4)cc3)c2cc1C(N)=O`, the IC50 was found to be 0.0125 µM in assay [1]; 0.0953 µM in assay [2]; 3.21 µM in assay [3]; 0.171 µM in assay [4]; 0.523 µM in assay [6].

Regarding `COc1cc2nccc(Oc3ccc(Nc4nn(C)cc4C(=O)NC45CC6CC(CC(C6)C4)C5)c(Cl)c3)c2cc1C(N)=O`, the IC50 in assay [1] was 0.0078 µM; in assay [2], 0.0294 µM; in [3], above 10 µM; in assay [4], 0.0534 µM; in assay [6] it was 0.137 µM.

In the case of `COc1cc2nccc(Oc3ccc(Nc4nn(C)cc4C(=O)NC4CCCC4)cc3)c2cc1C(N)=O`, the IC50 in [1] is 0.153 µM; in assay [2], 3.61 µM; in assay [3], above 10 µM; in assay [4], 1.03 µM; in assay [6], 7.28 µM.

Regarding `COc1cc2nccc(Oc3ccc(Nc4nn(C)cc4C(=O)Nc4ccccc4F)cc3)c2cc1C(N)=O`, the half-inhibitory concentration (IC50) in [1] was above 10 µM; in [2], above 10 µM; in assay [3] it was 1.71 µM; in assay [4] it was 1.86 µM; in assay [5] it was above 10 µM; in assay [6], 1.2 µM.

As to `COc1cc2nccc(Oc3ccc(Nc4nn(C)cc4C(=O)NC45CC6CC(CC(C6)C4)C5)cc3F)c2cc1C#N`, the IC50 in [1] is 0.142 µM; in assay [2] it was 0.659 µM; in [3], above 10 µM; in assay [4] it was 1.62 µM; in assay [6], 1.29 µM.

`COc1cc2nccc(Oc3ccc(Nc4nn(C)cc4C(=O)NC45CC6CC(CC(C6)C4)C5)cc3)c2cc1C(N)=O`: the IC50 in assay [1] is 0.0087 µM; in assay [2], 0.0999 µM; in assay [3], above 10 µM; in [4], 0.0608 µM; in assay [6] it was 0.285 µM.

Turning to `CO[C@]1(C(=O)N[C@@H](C)c2ccc(-n3cc(F)cn3)nc2)CC[C@H](c2nc(C)cc(Nc3cc(C)[nH]n3)n2)CC1` [PRALSETINIB], the IC50 is 0.0044 µM in [1]; 0.0041 µM in assay [7]; 0.0057 µM in assay [8]; above 0.261 µM in [2]; 0.215 µM in [9]; 0.0092 µM in assay [10]. Further, the IC50 in assay [3] was found to be 1.17 µM; in assay [11], 0.0217 µM; in [12], 0.241 µM; in assay [4], 0.0035 µM; in [6], 0.575 µM.

In the case of `COc1cc2nccc(Oc3ccc(Nc4nn(C)cc4C(=O)NCC4CCCCC4)cc3)c2cc1C(N)=O`, the IC50 in assay [1] was 0.281 µM; in assay [2], 1.26 µM; in [3], above 10 µM; in [4], 0.888 µM; in assay [6], 3.62 µM.

Take `COc1cc2nccc(Oc3ccc(Nc4nn(C)cc4C(=O)NC45CC6CC(CC(C6)C4)C5)cc3F)c2cc1C(N)=O`: the IC50 in assay [1] is 0.179 µM; in assay [2], 1 µM; in [3], above 10 µM; in assay [4], 1.36 µM; in assay [6] it was 1.64 µM.

In the case of `COc1cc2nccc(Oc3ccc(Nc4nn(C)cc4C(=O)Nc4ccccc4)cc3)c2cc1C(N)=O`, the IC50 in assay [1] was 2.25 µM; in assay [2], above 10 µM; in assay [3] it was above 10 µM; in [4] it was 1.72 µM; in assay [6], above 10 µM.

Turning to `Cn1cc(C(=O)NC23CC4CC(CC(C4)C2)C3)c(Nc2ccc(Oc3ccnc4cc(OCCN5CCOCC5)c(C(N)=O)cc34)c(F)c2)n1`, the IC50 in assay [1] is 0.0112 µM; in assay [2], 0.233 µM; in assay [3] it was above 10 µM; in [4], 0.0297 µM; in [6], 0.534 µM.

`COc1cc2nccc(Oc3ccc(Nc4nn(C)cc4C(=O)NC45CC6CC(CC(C6)C4)C5)c(C)c3)c2cc1C(N)=O`: the half-maximal inhibitory concentration (IC50) in assay [1] is 0.0118 µM; in [2], 0.0661 µM; in assay [3] it was above 10 µM; in assay [4], 0.0622 µM; in assay [6] it was 0.464 µM.

In the case of `Cn1cc(C(=O)NC23CC4CC(CC(C4)C2)C3)c(Nc2ccc(Oc3ccnc4cc(OCCCN5CCOCC5)c(C(N)=O)cc34)c(F)c2)n1`, the IC50 in [1] is 0.0051 µM; in assay [2], 0.363 µM; in [3], 1.35 µM; in assay [4], 0.007 µM; in assay [6] it was 0.329 µM.

Regarding `COc1ccc(CN2C3CC2CN(c2ccc(-c4cc(OCC(C)(C)O)cn5ncc(C#N)c45)cn2)C3)cn1` [SELPERCATINIB], the IC50 in assay [1] was 0.0074 µM; in [7], 0.0378 µM; in assay [8] it was 0.0106 µM; in assay [2], 0.472 µM; in assay [9], 1.24 µM; in [10], 0.072 µM. Moreover, the IC50 in assay [3] is above 10 µM; in assay [11], 0.253 µM; in [12] it was 4.34 µM; in assay [4] it was 0.0174 µM; in assay [6], 1.1 µM.

Take `COc1cc(Oc2ccnc3cc(OC)c(C(N)=O)cc23)ccc1Nc1nn(C)cc1C(=O)NC12CC3CC(CC(C3)C1)C2`: the IC50 in [1] was determined as 0.0216 µM; in [2], 0.349 µM; in assay [4], 0.141 µM; in assay [6], 0.591 µM.
